Measured values taken from patent US20120316203A1, “Compositions and Methods for Inhibition of Cancers” (THE OHIO STATE UNIVERSITY RESEARCH FOUNDATION, priority 2009, published 2012).

Experiments:
A2780 cells = test: Cell-cycle analysis by flow cytometry; assay type: cell-based, human; conditions: 6, 12, or 24 hours, versus nontreated control
Experimental: Cells were treated with HO-3867 (10 μmol/L) for 24 hours, trypsinized, washed in PBS, and fixed in an ice-cold 75% ethanol/PBS solution. The DNA was labeled with propidium iodide. Cells were sorted by flow cytometry and cell cycle profiles were determined using ModFit LT software (Becton Dickinson).
We next examined whether the growth inhibition of A2780 cells by HO-3867 was caused by cell cycle arrest. Cells were treated with HO-3867 for 6, 12, or 24 hours; fixed; and cell cycle populations were determined by flow cytometry.

[1] = test system: p53, p21, p27, cdk2, and cyclin A in A2780 cells; test: Immunoblot of cell cycle regulatory proteins; assay type: cell-based, human; conditions: Western blot
Experimental: Cells in RPMI 1640 were treated with DMSO (control) or HO-3867 (10 μmol/L) for 24 hours. Equal volumes of DMSO (0.1% v/v) were present in each treatment. Following treatment, the cell lysates were prepared in non-denaturing lysis buffer containing 10 mmol/L Tris-HCl (pH 7.4), 150 mmol/L NaCl, 1% Triton X-100, 1 mmol/L EDTA, 1 mmol/L EGTA, 0.3 mmol/L phenylmethyl-sulfonyl fluoride, 0.2 mmol/L sodium orthovanadate, 0.5% NP40, 1 μg/mL aprotinin, and 1 μg/mL leupetin. The lysates were centrifuged at 10,000×g for 20 minutes at 4° C. and the supernatant was separated. The protein concentration in the lysates was determined using a Pierce detergent-compatible protein assay kit. For Western blotting, 25 to 50 μg of protein lysate per sample were denatured in 2×SDS-PAGE sample buffer and subjected to SDS-PAGE on a 10% tris-glycine gel. The separated proteins were transferred to a polyvinylidene fluoride membrane and were blocked with 5% nonfat milk powder (w/v) in TBST (10 mmol/L Tris, 10 mmol/L NaCl, 0.1% Tween 20) for 1 hour at room temperature or overnight at 4° C. […] The bound antibodies were detected with horseradish peroxidase-labeled sheep anti-mouse IgG or horseradish peroxidase-labeled donkey anti-rabbit IgG using an enhanced chemiluminescence detection system (ECL Advanced kit). Protein expressions were determined using the Image Gauge v. […]

[2] = test system: pSTAT3 (Tyr705 and Ser727) and phospho-JAK1 (Tyr1022/1023) in A2780 cells; test: Immunoblot and immunoprecipitation of JAK/STAT3 signaling; assay type: cell-based, human; conditions: 10 or 20 μmol/L, 24 hours
Experimental: Equal volumes of DMSO (0.1% v/v) were present in each treatment. Following treatment, the cell lysates were prepared in non-denaturing lysis buffer containing 10 mmol/L Tris-HCl (pH 7.4), 150 mmol/L NaCl, 1% Triton X-100, 1 mmol/L EDTA, 1 mmol/L EGTA, 0.3 mmol/L phenylmethyl-sulfonyl fluoride, 0.2 mmol/L sodium orthovanadate, 0.5% NP40, 1 μg/mL aprotinin, and 1 μg/mL leupetin. The lysates were centrifuged at 10,000×g for 20 minutes at 4° C. and the supernatant was separated. The protein concentration in the lysates was determined using a Pierce detergent-compatible protein assay kit. For Western blotting, 25 to 50 μg of protein lysate per sample were denatured in 2×SDS-PAGE sample buffer and subjected to SDS-PAGE on a 10% tris-glycine gel. The separated proteins were transferred to a polyvinylidene fluoride membrane and were blocked with 5% nonfat milk powder (w/v) in TBST (10 mmol/L Tris, 10 mmol/L NaCl, 0.1% Tween 20) for 1 hour at room temperature or overnight at 4° C. The membranes were then incubated with the primary antibodies. The bound antibodies were detected with horseradish peroxidase-labeled sheep anti-mouse IgG or horseradish peroxidase-labeled donkey anti-rabbit IgG using an enhanced chemiluminescence detection system (ECL Advanced kit). Protein expressions were determined using the Image Gauge v. 3.45 software.

HSMC = test: Intracellular ROS by DCF fluorescence, HSMC; assay type: cell-based, human; conditions: 10 μM, 12 h
Experimental: The ROS levels in cells treated with DAPs were determined using H2DCF-DA, a membrane-permeative fluorogenic probe. The acetate and acetoxymethyl ester groups of this probe are enzymatically cleaved inside living cells. The probe can then be oxidized by intracellular oxidants (ROS) to give a product, DCF, which emits a strong, green fluorescence (λex=504 nm; λem=529 nm). The fluorescence intensity is proportional to the level of cellular oxidants. […] The cells were further incubated in the dark for 20 min and washed with protein-free medium, and then fluorescence images were immediately captured with a Nikon Eclipse TE2000-U camera system using excitation/emission at 495/520 nm. The captured images were then analyzed using MetaMorph image analysis software.

[3] = test system: A2780 xenograft tumor tissues; test: FAS/FAK and VEGF levels in xenograft tumor tissues (immunoblot, immunohistochemistry); assay type: in vivo, BALB/c nude mice
Experimental: A2780 cells (5×10^6 cells in 60 μl of PBS) were subcutaneously (s.c.) injected into the back of 6-week-old BALB/c nude mice from the National Cancer Institute. On the 5th day when the tumor size reached approximately 2 to 4 mm, the control groups was supplemented a normal diet (no treatment) while the experimental groups were treated using the DAP compounds mixed with the animal feed ([…]). The doses were chosen based on an initial dose-response study optimized to produce an observable effect on tumor growth. The tumor tissues were then subjected to immunoblotting and immunohistochemistry.
Tumor tissues were fixed in formalin and embedded in paraffin. Sections (6-μm thick) were obtained and used for hematoxylin and eosin staining. For immunofluorescence staining, the tissue sections (8-μm thick) were serially rehydrated in 100%, 95%, and 80% ethanol after deparaffinization with xylene. Slides were kept in steam for 30 min and then washed in PBS (pH 7.4) three times for 5 min each. Tissue sections were incubated with 2% goat serum and 5% bovine serum albumin in PBS to reduce nonspecific binding. The sections were then incubated for 4 h with an anti-mouse anti-FAS, or anti-VEGF. The sections were then incubated with secondary antibodies (1:1000 dilutions) conjugated to horseradish peroxidase (HRP)-labeled sheep anti-mouse IgG or HRP-labeled donkey anti-rabbit IgG (Amersham Pharmacia Biotech). The tissue slides were visualized using a Nikon fluorescence microscope.

[4] = 50 or 100 ppm in feed, dose-dependent

Question: How did the “percentages of the cell population in the G2-M and sub-G1 phases” value (A2780 cells) turn out when `CC1(C)C=C(CN2C/C(=C\c3ccc(F)cc3)C(=O)/C(=C/c3ccc(F)cc3)C2)C(C)(C)N1O` [HO-3867, 1-[(1-oxyl-2,2,5,5-tetramethyl-2,5-dihydro-1H-pyrrol-3-yl)methyl]-(3E,5E)-3,5-bis(4-fluorobenzylidene)piperidin-4-one] was run?
Answer: significantly higher

Question: What about the “cdk2 and cyclin-A levels” value [1] of the same compound?
Answer: significantly decreased

Question: And the “levels of p53 and p21” value [1]?
Answer: significantly upregulated

Question: What about the “pSTAT3 (Tyr705 and Ser727) levels” value [2] of the same compound?
Answer: significantly decreased

Question: What about the “phosphor-JAK1 (Tyr1022/1023)” value ([2]; versus unexposed controls) of the same compound?
Answer: substantial decrease

Question: And the “amounts of ROS in HSMC compared to A2780 cells” value (HSMC)?
Answer: significantly lower amounts of ROS

Question: What about the “intracellular ROS generation (DCF fluorescence) in HSMC” value (HSMC) of the same compound?
Answer: not significantly different from that of the untreated cells

Question: And the “SREBP1, MMP-2, and VEGF in xenografted tumor tissues” value [3, 4]?
Answer: clear down-regulation

Question: What about the “expression of FAS and FAK in xenografted tumor tissues” value [3, 4] of the same compound?
Answer: decreased expression

Question: And the “protein levels of FAS and VEGF by immunocytochemistry in tumor-bearing mice” value ([3]; mouse, in vivo)?
Answer: significantly inhibited
